Earlier results as cited in article PMC11676910, “Manganese(II) Complexes with Non-Steroidal Anti-Inflammatory Drugs: Structure and Biological Activity” (International Journal of Molecular Sciences, 2024).
Where two headings read alike, the source gives them in different places.

Columns and labels:
[1] = set-up: concentration or dose not given beside the values; conditions: free NSAID; cited from earlier work
[2] = tested on: CT DNA; conditions: cited from earlier work
[3] = tested on: EB–DNA adduct (CT DNA); conditions: cited from earlier work
[4] = biological target: bovine serum albumin (BSA) (Bos taurus, UniProt P02769); set-up: purchased Sigma–Aldrich Co; conditions: cited from earlier work
[5] = biological target: human serum albumin (HSA) (Homo sapiens, UniProt P02768); set-up: purchased Sigma–Aldrich Co; conditions: cited from earlier work
Sequence of human serum albumin (HSA) (P02768 25-609): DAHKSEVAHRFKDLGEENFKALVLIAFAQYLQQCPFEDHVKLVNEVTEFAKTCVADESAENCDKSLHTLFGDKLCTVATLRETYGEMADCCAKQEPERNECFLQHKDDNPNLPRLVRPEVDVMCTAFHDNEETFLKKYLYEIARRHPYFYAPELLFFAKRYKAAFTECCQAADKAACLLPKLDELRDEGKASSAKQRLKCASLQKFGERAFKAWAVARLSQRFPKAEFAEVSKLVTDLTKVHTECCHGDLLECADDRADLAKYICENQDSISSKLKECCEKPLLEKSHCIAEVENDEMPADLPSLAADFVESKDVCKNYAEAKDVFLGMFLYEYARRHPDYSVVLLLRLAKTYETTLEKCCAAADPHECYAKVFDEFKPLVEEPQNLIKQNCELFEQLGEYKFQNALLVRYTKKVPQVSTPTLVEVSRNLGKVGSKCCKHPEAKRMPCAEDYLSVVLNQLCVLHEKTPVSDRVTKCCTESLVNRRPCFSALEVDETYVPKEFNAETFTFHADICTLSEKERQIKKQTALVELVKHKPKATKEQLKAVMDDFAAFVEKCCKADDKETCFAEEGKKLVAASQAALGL

Sequence of bovine serum albumin (BSA) (P02769 25-607): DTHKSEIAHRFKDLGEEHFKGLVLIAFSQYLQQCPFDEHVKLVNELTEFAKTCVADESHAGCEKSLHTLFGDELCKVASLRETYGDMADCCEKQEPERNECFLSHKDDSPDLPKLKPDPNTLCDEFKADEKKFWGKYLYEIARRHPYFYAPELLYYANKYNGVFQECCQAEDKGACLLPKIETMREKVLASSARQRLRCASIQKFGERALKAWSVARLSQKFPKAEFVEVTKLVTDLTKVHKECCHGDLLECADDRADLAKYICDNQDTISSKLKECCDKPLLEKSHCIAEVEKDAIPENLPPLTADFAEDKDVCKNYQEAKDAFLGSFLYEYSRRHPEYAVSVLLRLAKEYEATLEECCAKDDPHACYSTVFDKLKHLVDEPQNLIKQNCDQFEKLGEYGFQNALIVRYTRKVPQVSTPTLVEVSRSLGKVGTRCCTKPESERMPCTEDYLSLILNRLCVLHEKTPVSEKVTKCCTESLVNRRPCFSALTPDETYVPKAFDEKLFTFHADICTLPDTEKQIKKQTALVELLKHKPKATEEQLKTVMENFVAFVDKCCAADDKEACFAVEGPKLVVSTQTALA

SMILES | % ABTS radical scavenging activity (ABTS%) [1] | ΔA/A0 (%) hyper-/hypo-chromism of UV band ([2]; first band listed in the cell) | Δλ (nm) shift of λmax ([2]; first band listed in the cell) | ΔA/A0 (%) hyper-/hypo-chromism of UV band ([2]; second band listed in the cell) | Δλ (nm) shift of λmax ([2]; second band listed in the cell) | EB–DNA fluorescence quenching ΔI/Io (%) [3] | Stern–Volmer constant KSV (EB–DNA) [3] | quenching constant kq of the EB–DNA fluorescence [3] | BSA binding constant Κ(BSA) [4] | BSA quenching constant kq(BSA) [4] | HSA binding constant Κ(HSA) [5] | HSA quenching constant kq(HSA) [5]
O=C(O)c1ccccc1Nc1cccc(C(F)(F)F)c1 [Hfluf, flufenamic acid] | 64.57 ± 0.43% | +40% | +10 nm | < −50% | 0 nm | 67.0% | 6.34 (±0.30) × 10^5 M^–1 | 2.76 (±0.13) × 10^13 M^–1s^–1 | 1.06 (±0.04) × 10^6 M^–1 | 1.83 (±0.20) × 10^13 M^–1s^–1 | 1.79 (±0.17) × 10^5 M^–1 | 1.86 (±0.21) × 10^12 M^–1s^–1
Cc1cccc(Nc2ccccc2C(=O)O)c1C [Hmef, mefenamic acid] | 66.32 ± 0.38% | +10% | 0 nm | – | – | 80.0% | 1.58 (±0.06) × 10^5 M^–1 | 6.87 (±0.26) × 10^12 M^–1s^–1 | 1.35 (±0.22) × 10^5 M^–1 | 2.78 (±0.20) × 10^13 M^–1s^–1 | 1.32 (±0.15) × 10^5 M^–1 | 7.13 (±0.34) × 10^12 M^–1s^–1
Cc1ccc(Cl)c(Nc2ccccc2C(=O)O)c1Cl [Na meclf, sodium meclofenamate] | 59.48 ± 0.06% | −12% | −1 nm | +5% | −2 nm | 80.1% | 8.20 (±0.26) × 10^4 M^–1 | 3.57 (±0.11) × 10^12 M^–1s^–1 | 1.78 (±0.11) × 10^6 M^–1 | 4.84 (±0.32) × 10^13 M^–1s^–1 | 1.05 (±0.03) × 10^6 M^–1 | 2.98 (±0.31) × 10^13 M^–1s^–1
Cc1c(Cl)cccc1Nc1ccccc1C(=O)O [Htolf, tolfenamic acid] | 59.43 ± 0.33% | +40% | +5 nm | < −50% | −2 nm | 74.0% | 1.15 (±0.04) × 10^6 M^–1 | 5.00 (±0.17) × 10^13 M^–1s^–1 | 1.60 (±0.14) × 10^5 M^–1 | 2.18 (±0.12) × 10^13 M^–1s^–1 | 3.12 (±0.25) × 10^5 M^–1 | 6.10 (±0.38) × 10^12 M^–1s^–1
